# In US20260258425A1, “MALT1 TUMOR INHIBITOR, PHARMACEUTICAL COMPOSITION CONTAINING THE SAME, AND APPLICATIONS THEREOF” (XZYP (BEIJING) BIOTECH CO., LTD, priority 2023, published 2026):
# “Also recorded” adds a separate entry of the source.
# Columns and labels:
# [1] = tested on: MALT1; experiment: Western blot of MALT1 expression in E0771 cells after ASO transfection with Lipofectamine 3000; type: cell-based, mouse; conditions: ASO final concentration 50 nM, 5 μL Lipofectamine 3000, 48 hours after transfection
# From the text: S1. Considering the specificity between the antisense nucleic acid and the target nucleic acid and the hairpin-like structure that may be formed by the base complementarity within the nucleotide sequence of the antisense nucleic acid, the nucleotide sequence of the antisense nucleic acid needs to target the amino acid residues at positions 81 and/or 82 of the death domain (DD) of MALT1; S2. Considering the stability of hybridization and the membrane permeability of the antisense oligonucleotide, select the length of the antisense oligonucleotide, which ranges from 15 to 40 bases; S3. Considering the affinity of the antisense oligonucleotide for the target sequence, since the affinity of GC base pairs is greater than that between AU, increasing the ratio of GC base pairs to AU base pairs in the antisense oligonucleotide can appropriately reduce the length of the antisense oligonucleotide; S4. Set a control, which can be missense or reverse; S5. Use the designed antisense oligonucleotides to inhibit the expression of the same target sequence MALT-1 mRNA, and screen the antisense oligonucleotide with the best inhibitory effect. The specific steps for screening the antisense oligonucleotide with the best inhibitory effect are as follows: • a. […] 2×10^5 E0771 cells into each well of a 12-well plate and incubate overnight; • b. On the day after operation a, transfect the corresponding ASO drug with 5 μL of Lipofectamine™ 3000 until its final concentration is 50 nM; • c. 6 hours after operation b, replace the serum-free medium with medium containing 10% serum; • d. 24 hours after operation c, replace the serum-free medium again; • e. 48 hours after operation d, harvest the obtained protein and perform Western blot experiment. The Western blot results of antisense oligonucleotides targeting E0771 cells after transfection with Lipofectamine™ 3000 are shown in FIG. 5: in this figure, 48 hours after transfection with Lipofectamine™ 3000, 5 μL of Lipofectamine™ 3000 was added to each well of the 12-well plate.
# [2] = tested on: ABC DLBCL cells; conditions: background statement; cited from earlier work
# [3] = tested on: germinal center B-cell (GCB) type DLBCL cells; conditions: background statement; cells independent of BCR signaling; cited from earlier work
# [4] = tested on: PyMT-A cells; experiment: PyMT-A orthotopic breast cancer model, intratumoral ASO, tumor volume; type: in vivo, mouse; conditions: mean, n=10
# From the text: (§1) Based on the intratumoral experimental data of various mouse breast cancer models and melanoma models (administration started 7 days later, once every 3 days), this example studies the effect comparison between the ASO prodrug (ASO24, whose sequence is shown in SEQ ID No. 2) and PD-1/PD-L1, as well as the effect of their combination.
# (§2) 1×10^5 E0771 cells were orthotopically injected into the fat pad of wild-type mice. Starting from day 7, PD-1 antibody (BioXCell #BE0033, clone J43, the same below) monotherapy, ASO monotherapy, or combined PD-1 antibody and ASO therapy was initiated. For anti-PD-1 antibody monotherapy, intraperitoneal injection was performed once a week at a dose of 3 mg/kg starting 7 days after tumor transplantation, and the control group was injected with DPBS. For MALT1 ASO monotherapy, in vivo-jetPEI®, in vivo DNA transfection kit was used according to the instructions. Intratumoral injection was performed twice a week at a dose of 5 nmol starting 7 days after tumor transplantation, and the control group was injected with solvent or nontarget ASO. Combined therapy will receive the two specified monotherapies. Tumor measurement was started after administration, once every three days. n=12. Data are expressed as mean. Statistical analysis was performed using Two way ANOVA. ** represents p <0.01.
# (§3) 1×10^5 PyMT-A cells were orthotopically injected into the fat pad of wild-type mice. Starting from day 7, PD-1 antibody monotherapy, ASO monotherapy, or combined PD-1 antibody and ASO therapy was initiated. n=10. Data are expressed as mean. Statistical analysis was performed using Two way ANOVA. n.s. represents no significant difference. ** represents p <0.01.
# [5] = tested on: B16F10 cells; experiment: B16F10 subcutaneous melanoma model, intratumoral ASO, tumor volume; type: in vivo, mouse; conditions: mean, n=10
# From the text: as §1, §2
# 1×10^5 B16F10 cells were subcutaneously injected near the subcutaneous tissue of the groin of wild-type mice. Starting from day 7, PD-1 antibody monotherapy, ASO monotherapy, or combined PD-1 antibody and ASO therapy was initiated. n=10. Data are expressed as mean. Statistical analysis was performed using Two way ANOVA. ** represents p<0.01.
# [6] = tested on: breast cancer cells (E0771); experiment: Verification of ASO prodrug in breast cancer cells E0771 (FIG. 18); type: cell-based, mouse
# [7] = tested on: 4T1 cells; experiment: 4T1 orthotopic breast cancer model, intratumoral ASO, tumor volume; type: in vivo, mouse; conditions: mean, n=10
# From the text: as §1, §2
# as §3, with “2×10^5 4T1” for “1×10^5 PyMT-A”
# [8] = tested on: 4T1 cells; experiment: 4T1 breast cancer model, systemic ASO24 (tail vein LNP-ASO), tumor volume; type: in vivo, mouse
# Procedure: (§4) Study on the Effect Comparison between ASO Prodrug and PD-1/PD-L1 and Their Combined Use Based on Systemic Administration Experimental Data of Various Mouse Breast Cancer Models and Melanoma Models (Administration Started 7 Days Later, Once Every 3 Days).
# (§5) The experimental process is similar to the intratumoral administration of ASO24 in E0771 cells, with the difference that ASO24 is administered via systemic delivery by tail vein injection of LNP-ASO in mice.
# [9] = tested on: E0771 cells; experiment: E0771 breast cancer model, systemic ASO24 (tail vein LNP-ASO), tumor volume; type: in vivo, mouse
# Procedure: as §2, §4, §5
# [10] = tested on: E0771 cells; experiment: E0771 orthotopic breast cancer model, intratumoral ASO, tumor volume; type: in vivo, mouse; conditions: ASO 5 nmol intratumoral twice a week, mean, n=12
# From the text: as §1, §2
# [11] = Day 7 (start of administration), ASO24 systemic by tail vein LNP-ASO
# [12] = Day 9, ASO24 systemic by tail vein LNP-ASO, administration from day 7
# [13] = Day 11, ASO24 systemic by tail vein LNP-ASO, administration from day 7
# [14] = Day 13, ASO24 systemic by tail vein LNP-ASO, administration from day 7
# [15] = Day 15, ASO24 systemic by tail vein LNP-ASO, administration from day 7
# [16] = Day 17, ASO24 systemic by tail vein LNP-ASO, administration from day 7
# [17] = Day 19, ASO24 systemic by tail vein LNP-ASO, administration from day 7
substance,measurement,setting,value
"TAGAGGCAGTGCTTGGGAAG (antisense UAGAGGCAGUGCUUGGGAAG; listed as RNA, chemistry not given here) [ASO H]",inhibition of MALT1 expression (Western blot band),[1],good inhibitory results; also recorded: good inhibitory effects
zVRPR-FMK,toxicity in ABC DLBCL cells,[2],induces toxicity
same,sensitivity of GCB type DLBCL cells to the inhibitor,[3],insensitive
"AGCCTTGGCCCACTGTAGATT (antisense AGCCUUGGCCCACUGUAGAUU; listed as RNA, chemistry not given here) [ASO A]",inhibition of MALT1 expression (Western blot band),[1],good inhibitory results; also recorded: good inhibitory effects
"GAAGTTCATGAGCCTTGGCCC (antisense GAAGUUCAUGAGCCUUGGCCC; called an ASO prodrug, chemistry not given here) [ASO24]",Tumor volume,"[4]; Day 0, PyMT-A orthotopic fat pad, wild-type mice, treatment from day 7, ASO intratumoral",0 mm^3
same,Tumor volume,"[4]; Day 7 (start of treatment), PyMT-A orthotopic, ASO intratumoral",13 mm^3
same,Tumor volume,"[4]; Day 10, PyMT-A orthotopic, treatment from day 7, ASO intratumoral",41 mm^3
same,Tumor volume,"[4]; Day 13, PyMT-A orthotopic, treatment from day 7, ASO intratumoral",142 mm^3
same,Tumor volume,"[4]; Day 16, PyMT-A orthotopic, treatment from day 7, ASO intratumoral",245 mm^3
same,Tumor volume,"[4]; Day 19, PyMT-A orthotopic, treatment from day 7, ASO intratumoral",578 mm^3
same,Tumor volume,"[5]; Day 0, B16F10 subcutaneous near groin, wild-type mice, treatment from day 7, ASO intratumoral",0 mm^3
same,Tumor volume,"[5]; Day 7 (start of treatment), B16F10 subcutaneous, ASO intratumoral",49 mm^3
same,Tumor volume,"[5]; Day 10, B16F10 subcutaneous, treatment from day 7, ASO intratumoral",26 mm^3
same,Tumor volume,"[5]; Day 13, B16F10 subcutaneous, treatment from day 7, ASO intratumoral",129 mm^3
same,Tumor volume,"[5]; Day 16, B16F10 subcutaneous, treatment from day 7, ASO intratumoral",311 mm^3
same,inhibition of further development of cancer cells,[6],significantly inhibit the further development of cancer cells
same,Tumor volume,"[7]; Day 0, 4T1 orthotopic fat pad, wild-type mice, treatment from day 7, ASO intratumoral",0 mm^3
same,Tumor volume,"[7]; Day 7 (start of treatment), 4T1 orthotopic, ASO intratumoral",66 mm^3
same,Tumor volume,"[7]; Day 10, 4T1 orthotopic, treatment from day 7, ASO intratumoral",71 mm^3
same,Tumor volume,"[7]; Day 13, 4T1 orthotopic, treatment from day 7, ASO intratumoral",205 mm^3
same,Tumor volume,"[7]; Day 16, 4T1 orthotopic, treatment from day 7, ASO intratumoral",377 mm^3
same,Tumor volume,"[7]; Day 19, 4T1 orthotopic, treatment from day 7, ASO intratumoral",876 mm^3
same,Tumor volume,"[8]; Day 0, ASO24 systemic by tail vein LNP-ASO, administration from day 7",0 mm^3
same,Tumor volume,[8]; [11],44 mm^3
same,Tumor volume,[8]; [12],94 mm^3
same,Tumor volume,[8]; [13],103 mm^3
same,Tumor volume,[8]; [14],136 mm^3
same,Tumor volume,[8]; [15],244 mm^3
same,Tumor volume,[8]; [16],333 mm^3
same,Tumor volume,[8]; [17],510 mm^3
same,Tumor volume,"[9]; Day 0, ASO24 systemic by tail vein injection of LNP-ASO, administration from day 7",0 mm^3
same,Tumor volume,[9]; [11],29 mm^3
same,Tumor volume,[9]; [12],51 mm^3
same,Tumor volume,[9]; [13],57 mm^3
same,Tumor volume,[9]; [14],86 mm^3
same,Tumor volume,[9]; [15],195 mm^3
same,Tumor volume,[9]; [16],225 mm^3
same,Tumor volume,[9]; [17],313 mm^3
same,Tumor volume,"[10]; Day 0, E0771 orthotopic fat pad, wild-type mice, from day 7 anti-PD-1 3 mg/kg i.p. once a week",0 mm^3
same,Tumor volume,"[10]; Day 7 (start of treatment), E0771 orthotopic, anti-PD-1 3 mg/kg i.p. once a week",49 mm^3
same,Tumor volume,"[10]; Day 10, E0771 orthotopic, from day 7 anti-PD-1 3 mg/kg i.p. once a week",36 mm^3
same,Tumor volume,"[10]; Day 13, E0771 orthotopic, from day 7 anti-PD-1 3 mg/kg i.p. once a week",92 mm^3
same,Tumor volume,"[10]; Day 16, E0771 orthotopic, from day 7 anti-PD-1 3 mg/kg i.p. once a week",140 mm^3
same,Tumor volume,"[10]; Day 19, E0771 orthotopic, from day 7 anti-PD-1 3 mg/kg i.p. once a week",306 mm^3
same,inhibition of MALT1 expression (Western blot band),[1]; listed as D,obvious inhibitory results; also recorded: obvious inhibitory effects
"GAGGCAGTGCTTGGGAAGGTC (antisense GAGGCAGUGCUUGGGAAGGUC; listed as RNA, chemistry not given here) [ASO I]",inhibition of MALT1 expression (Western blot band),[1],good inhibitory results; also recorded: good inhibitory effects
"GGTTTGTGGACTATACTTGT (antisense GGUUUGUGGACUAUACUUGU; listed as RNA, chemistry not given here) [ASO25]",inhibition of MALT1 expression (Western blot band),[1],obvious inhibitory results; also recorded: obvious inhibitory effects
"CAAGAGCAGATTTATTTTGT (antisense CAAGAGCAGAUUUAUUUUGU; listed as RNA, chemistry not given here) [ASO K]",inhibition of MALT1 expression (Western blot band),[1],good inhibitory results; also recorded: good inhibitory effects
"AAGTTCATGAGCCTTGGCCC (antisense AAGUUCAUGAGCCUUGGCCC; listed as RNA, chemistry not given here) [ASO C]",inhibition of MALT1 expression (Western blot band),[1],good inhibitory results; also recorded: good inhibitory effects
"TCATGAGCCTTGGCCCACTG (antisense UCAUGAGCCUUGGCCCACUG; listed as RNA, chemistry not given here) [ASO B]",inhibition of MALT1 expression (Western blot band),[1],obvious inhibitory results; also recorded: obvious inhibitory effects
"TTGTGGACTATACTTGTGTA (antisense UUGUGGACUAUACUUGUGUA; listed as RNA, chemistry not given here) [ASO G]",inhibition of MALT1 expression (Western blot band),[1],good inhibitory results; also recorded: good inhibitory effects
"GTCCAGCCAACACTGCCTTG (antisense GUCCAGCCAACACUGCCUUG; listed as RNA, chemistry not given here) [ASO J]",inhibition of MALT1 expression (Western blot band),[1],good inhibitory results; also recorded: good inhibitory effects
